PubChem BioAssay AID1963827 (Molecular Pharmacology Branch, DTP, NCI, 2024)

Tested on: 994946-033-R-J1-PDC complex spheroid viability
Test: Anticancer human tumor 994946-033-R-J1-PDC patient-derived melanoma cell line growth inhibition [POLQ]
Settings: for IC50: curve of first compound; for viability, T/C: stronger effect = lower value
Experimental: Multicellular complex tumor spheroid response to Polymerase (POL) inhibitors (novobiocin, ART-558, RP6685) in combination with a variety of drugs and investigational agents in selected tumor cell lines
The POL inhibitors (novobiocin, ART-558, and RP6685) were evaluated both individually and in combination with standard of care and investigational anticancer small molecules within a complex spheroid model of solid tumors. . Complex spheroids include a stromal component modeled by human endothelial cells (HUVEC) and fibroblasts modeled by human mesenchymal stem cells (MSCs). The concentration ranges selected for each drug and investigational agent were based upon clinically achievable concentrations if the clinical Cmax of the agent was known.
Compounds. The drugs and investigational agents: novobiocin (NSC847541), ART-558 (NSC835418), RP-6685 (NSC848927), peposertib (NSC802822), ceralasertib (NSC780249), elimusertib (NSC800525), camonsertib (NSC841442), AZD-1390 (NSC803789), olaparib (NSC753686), talazoparib (NSC767125), rucaparib (NSC756644), sotorasib (NSC818433), MRTX-1133 (NSC836407), SN-38 (NSC673596), topotecan (NSC609699), epotoside (NSC141540), doxorubicin (NSC123127), gemcitabine (NSC613327), 5-fluorouracil (NSC19893), paclitaxel (NSC125973), vemurafenib (NSC761431), MSA-2 (NSC828583), SN-011 (NSC837082), adavosertib (NSC754352), prexasertib (NSC758257), carboplatin (NSC241240) and oxaliplatin (NSC266046), were obtained from the National Cancer Institute (NCI) Developmental Therapeutics Program Chemical Repository (21). The FDA-approved anticancer drug set is available from the Developmental Therapeutics Program at https://dtp.cancer.gov/organization/dscb/obtaining/. […] The stock solutions were prepared in dimethyl sulfoxide (DMSO, Sigma-Aldrich, St. Louis, MO, cat. D2650), except for the platinum compounds which were prepared in saline (Quality Biological, Gaithersburg, MD, cat. 114-055-101), at 800-fold the tested concentration and stored at -70 degrees C prior to their use. All drugs and investigational agents were tested over a range starting from a high concentration at or near the clinical Cmax and decreasing in half-log increments. If the clinical Cmax for an agent had not been determined, the highest concentration tested was 10 microM, except for SN-38, which was tested at a high concentration of 1 microM.
Cell Culture. All cells were maintained in an incubator at 37 degrees C and 5% CO2 with 95% humidity. The PDC lines were cultured according to standard operating procedures established by the NCI PDMR (https://pdmr.cancer.gov). Table 3 of the manuscript, lists the cell lines along with the number of the three cell types plated to form the mct-spheroids and media for tumor cell growth. After thawing, all PDC lines, except 997537-175-T-J1-PDC and 415267-285-R-J2-PDC, were cultured in Matrigel-coated flasks prepared with a working solution of 1X Ham's F-12 nutrient mix, without supplementation (Thermo Fisher Scientific, cat. 11765054), 100 U/mL penicillin-streptomycin (Thermo Fisher Scientific, cat. 15140122), and 2.5% Matrigel (Corning Inc., Corning, NY, cat. 354248) for the first three passages. The two PDC lines 997537-175-T-J1-PDC and 415267-285-R-J2-PDC were cultured on uncoated flasks. The 857933-349-R-J2-PDC line was cultured in 6C/Colon 1B media containing advanced DMEM/F-12 (Thermo Fisher Scientific, cat. 12634028), 10 mM HEPES (Thermo Fisher Scientific, cat. 15630080), 1X GlutaMAX supplement (Thermo Fisher Scientific, cat. 35050061), 0.1 mg/mL primocin (InvivoGen, San Diego, CA, cat. ant-pm-2), 10% defined fetal bovine serum, heat inactivated (HyClone Laboratories Inc., Logan, UT, cat. SH30070.03HI), 50% L-WRN conditioned media (ATCC, cat. CRL-3276), 1.25 mM N-Acetyl-L-cysteine (Sigma-Aldrich, cat. A9165), 10 mM nicotinamide (Sigma-Aldrich, cat. N0636), 1X B-27 supplement (Thermo Fisher Scientific, cat. 17504044), 1X N-2 supplement (Thermo Fisher Scientific, cat. […]

[1] = second compound 0.0316 µM, first compound 0.00316 µM
[2] = second compound 0.0316 µM, first compound 0.01 µM
[3] = second compound 0.0316 µM, first compound 0.0316 µM
[4] = second compound 0.0316 µM, first compound 0.1 µM
[5] = second compound 0.0316 µM, first compound 0.316 µM
[6] = second compound 0.0316 µM, first compound 1 µM
[7] = second compound 0.1 µM, first compound 0.00316 µM
[8] = second compound 0.1 µM, first compound 0.01 µM
[9] = second compound 0.1 µM, first compound 0.0316 µM
[10] = second compound 0.1 µM, first compound 0.1 µM
[11] = second compound 0.1 µM, first compound 0.316 µM
[12] = second compound 0.1 µM, first compound 1 µM
[13] = second compound 0.316 µM, first compound 0.00316 µM
[14] = second compound 0.316 µM, first compound 0.01 µM
[15] = second compound 0.316 µM, first compound 0.0316 µM
[16] = second compound 0.316 µM, first compound 0.1 µM
[17] = second compound 0.316 µM, first compound 0.316 µM
[18] = second compound 0.316 µM, first compound 1 µM
[19] = second compound 1 µM, first compound 0.00316 µM
[20] = second compound 1 µM, first compound 0.01 µM
[21] = second compound 1 µM, first compound 0.0316 µM
[22] = second compound 1 µM, first compound 0.1 µM
[23] = second compound 1 µM, first compound 0.316 µM
[24] = second compound 1 µM, first compound 1 µM
[25] = second compound 3.16 µM, first compound 0.00316 µM
[26] = second compound 3.16 µM, first compound 0.01 µM
[27] = second compound 3.16 µM, first compound 0.0316 µM
[28] = second compound 3.16 µM, first compound 0.1 µM
[29] = second compound 3.16 µM, first compound 0.316 µM
[30] = second compound 3.16 µM, first compound 1 µM
[31] = second compound 10 µM, first compound 0.00316 µM
[32] = second compound 10 µM, first compound 0.01 µM
[33] = second compound 10 µM, first compound 0.0316 µM
[34] = second compound 10 µM, first compound 0.1 µM
[35] = second compound 10 µM, first compound 0.316 µM
[36] = second compound 10 µM, first compound 1 µM
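Further: spheroids exposed to drugs for 7 days.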
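Wherever viability, T/C is given: 100% = DMSO vehicle treated spheroids.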

Which results are given for `C=CCn1c(=O)c2cnc(Nc3ccc(N4CCN(C)CC4)cc3)nc2n1-c1cccc(C(C)(C)O)n1` + Cc1cccc(N(C)C(=O)C2C(O)CCN2c2nc(C)cc(C(F)(F)F)c2C#N)c1?
IC50 (second compound 0.0316 µM): 625 nM; IC50 (second compound 0.1 µM): > 1000 nM; IC50 (second compound 0.316 µM): 489 nM; IC50 (second compound 1 µM): 765 nM; IC50 (second compound 3.16 µM): 871 nM; IC50 (second compound 10 µM): 915 nM; viability, T/C [1]: 94.9%; viability, T/C [2]: 95.3%; viability, T/C [3]: 132%; viability, T/C [4]: 108%; viability, T/C [5]: 73.3%; viability, T/C [6]: 33.9%; viability, T/C [7]: 66.7%; viability, T/C [8]: 93.5%; viability, T/C [9]: 103%; viability, T/C [10]: 115%; viability, T/C [11]: 73.5%; viability, T/C [12]: 52.4%; viability, T/C [13]: 80.4%; viability, T/C [14]: 112%; viability, T/C [15]: 83.5%; viability, T/C [16]: 102%; viability, T/C [17]: 60%; viability, T/C [18]: 33.5%; viability, T/C [19]: 111%; viability, T/C [20]: 95.1%; viability, T/C [21]: 117%; viability, T/C [22]: 113%; viability, T/C [23]: 84.3%; viability, T/C [24]: 39.6%; viability, T/C [25]: 116%; viability, T/C [26]: 118%; viability, T/C [27]: 111%; viability, T/C [28]: 108%; viability, T/C [29]: 111%; viability, T/C [30]: 41.7%; viability, T/C [31]: 123%; viability, T/C [32]: 73.9%; viability, T/C [33]: 81.3%; viability, T/C [34]: 121%; viability, T/C [35]: 80.5%; viability, T/C [36]: 47.4%

What does the source list for `CCc1c2c(nc3ccc(O)cc13)-c1cc3c(c(=O)n1C2)COC(=O)[C@]3(O)CC` + Cc1cccc(N(C)C(=O)C2C(O)CCN2c2nc(C)cc(C(F)(F)F)c2C#N)c1?
IC50 (second compound 0.0316 µM): < 3.16 nM; IC50 (second compound 0.1 µM): < 3.16 nM; IC50 (second compound 0.316 µM): < 3.16 nM; IC50 (second compound 1 µM): < 3.16 nM; IC50 (second compound 3.16 µM): < 3.16 nM; IC50 (second compound 10 µM): < 3.16 nM; viability, T/C [1]: 17.5%; viability, T/C [2]: 10.9%; viability, T/C [3]: 5%; viability, T/C [4]: 5.25%; viability, T/C [5]: 2.7%; viability, T/C [6]: 1.11%; viability, T/C [7]: 18.9%; viability, T/C [8]: 10%; viability, T/C [9]: 7.4%; viability, T/C [10]: 5.26%; viability, T/C [11]: 3.12%; viability, T/C [12]: 0.8%; viability, T/C [13]: 18.6%; viability, T/C [14]: 8.02%; viability, T/C [15]: 5.77%; viability, T/C [16]: 4.13%; viability, T/C [17]: 4.1%; viability, T/C [18]: 1.27%; viability, T/C [19]: 18.7%; viability, T/C [20]: 8.88%; viability, T/C [21]: 5.58%; viability, T/C [22]: 7.75%; viability, T/C [23]: 3.43%; viability, T/C [24]: 1.3%; viability, T/C [25]: 26.8%; viability, T/C [26]: 12%; viability, T/C [27]: 8.11%; viability, T/C [28]: 5.61%; viability, T/C [29]: 2.9%; viability, T/C [30]: 0.8%; viability, T/C [31]: 17.9%; viability, T/C [32]: 9.1%; viability, T/C [33]: 5.89%; viability, T/C [34]: 4%; viability, T/C [35]: 2.6%; viability, T/C [36]: 0.66%
